By Ki is commonly meant the equilibrium dissociation constant of an inhibitor or competing ligand from its target.

The values that follow come from patent US11718618B2, “Substituted pyrido[2,1-a]isoquinolines as VMAT2 inhibitors” (priority 2021, dated 2023).

Read-outs that look alike come from different tables or passages of the source. Where only a bound is given, the exact number is not on record here.

Series [1] in a line: Stability of compounds in human liver microsomes. The series is classed as in vitro ADME. The conditions noted are these: for CLint scaled at 0.5 μM / half-life at 0.5 μM: both sexes, pH 7.4; for CLint scaled at 0.5 μM: liver microsomes, calculated from HLM half-life, read-out: HLM Scaled Intrinsic Clearance; for CLint scaled at 0.5 μM / Predicted Max. Bioavailability (% F) / HLM Predicted Systemic Clearance: human; for half-life at 0.5 μM: 0.5 μM compound, 0.5 mg/mL human liver microsomes, 37° C., maxed at 420 minutes, read-out: HLM Elimination half-life (t1/2, min); for Predicted Max. Bioavailability (% F): predicted from HLM data; for HLM Predicted Systemic Clearance: scaled from HLM half-life (Obach method). In outline:
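Compound at 0.5 μM incubated at 37 °C with pooled mixed-gender human liver microsomes (0.5 mg/mL protein) and an NADPH-generating system in pH 7.4 phosphate buffer, sampled 0–60 min. Parent depletion tracked by LC-MS/MS; t1/2 derived from the slope by non-linear regression, with predicted extraction ratio and maximum bioavailability also calculated.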

A further series has as its target human VMAT2 (Homo sapiens (Human), UniProt Q05940). The series can be described thus: VMAT2 radioligand binding, 3H-dihydrotetrabenazine competition on human platelet homogenate. In short, it runs like this:
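Ki from scintillation counting of filter-bound ³H-dihydrotetrabenazine (10 nM) after 90 min, 25 °C incubation with twelve concentrations of compound. Membranes: human platelet homogenate, 30 μg protein per well; buffer DPBS, 1 mM EDTA, pH 7.4.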

[2] abbreviates: 10 nM 3H-dihydrotetrabenazine, human platelet homogenate, 25° C., 90 minutes, read-out: VMAT2 Ki.

Chain of human VMAT2 (Q05940 whole entry): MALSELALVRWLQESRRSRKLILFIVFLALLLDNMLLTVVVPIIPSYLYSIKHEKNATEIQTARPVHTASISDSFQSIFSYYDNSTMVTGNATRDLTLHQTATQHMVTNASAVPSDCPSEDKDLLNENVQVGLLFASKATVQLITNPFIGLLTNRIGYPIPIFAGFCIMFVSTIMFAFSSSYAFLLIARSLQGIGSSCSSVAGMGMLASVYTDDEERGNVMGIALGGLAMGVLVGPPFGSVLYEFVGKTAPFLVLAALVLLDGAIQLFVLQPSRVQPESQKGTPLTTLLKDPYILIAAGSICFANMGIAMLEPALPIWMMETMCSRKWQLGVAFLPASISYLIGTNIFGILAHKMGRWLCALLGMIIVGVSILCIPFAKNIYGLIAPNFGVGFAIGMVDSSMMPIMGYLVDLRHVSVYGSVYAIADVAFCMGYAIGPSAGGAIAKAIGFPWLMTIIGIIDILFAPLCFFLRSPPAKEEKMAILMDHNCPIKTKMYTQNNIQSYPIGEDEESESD

Consider `COc1cc2c(cc1OCCC(F)(F)F)CCN1C[C@@H](CC(C)(C)C)[C@@H](O)C[C@H]21` [Compound 4-12, (2S,3R,11bR)-3-(2,2-dimethylpropyl)-10-methoxy-9-(3,3,3-trifluoropropoxy)-1H,2H,3H,4H,6H,7H,11bH-pyrido[2,1-a]isoquinolin-2-ol], for which, in series [1], the CLint scaled at 0.5 μM is at most 2.97 mL/min/kg, the half-life at 0.5 μM is at least 420 min, the “Predicted Max. Bioavailability (% F)” value is at least 87 % F and the “HLM Predicted Systemic Clearance” value is at most 2.59 mL/min/kg. In addition, the Ki at human VMAT2 (setting [2]) is 3.4 nM.

With `COc1cc2c(cc1OCC(O)CC(F)(F)F)CCN1C[C@@H](CC(C)(C)C)[C@H](O)C[C@H]21` (stereo partly drawn) [Compound 4-62, (2R,3R,11bR)-3-(2,2-dimethylpropyl)-10-methoxy-9-(4,4,4-trifluoro-2-hydroxybutoxy)-1H,2H,3H,4H,6H,7H,11bH-pyrido[2,1-a]isoquinolin-2-ol], in series [1], the CLint scaled at 0.5 μM was at most 2.97 mL/min/kg, the half-life at 0.5 μM is at least 420 min, the “Predicted Max. Bioavailability (% F)” value is reported as at least 87 % F and the “HLM Predicted Systemic Clearance” value is at most 2.59 mL/min/kg. Besides, the Ki on human VMAT2 (setting [2]) amounted to 3.7 nM.

Regarding `COc1cc2c(cc1OCC(O)C(F)F)CCN1C[C@@H](CC(C)(C)C)[C@H](O)C[C@H]21` (stereo partly drawn) [Compound 4-51, (2R,3R,11bR)-9-(3,3-difluoro-2-hydroxypropoxy)-3-(2,2-dimethylpropyl)-10-methoxy-1H,2H,3H,4H,6H,7H,11bH-pyrido[2,1-a]isoquinolin-2-ol], in series [1], the CLint scaled at 0.5 μM is at most 2.97 mL/min/kg, the half-life at 0.5 μM is at least 420 min, the “Predicted Max. Bioavailability (% F)” value is on record as at least 87 % F and the “HLM Predicted Systemic Clearance” value was at most 2.59 mL/min/kg. Further, the Ki on human VMAT2 (setting [2]) came out at 9.4 nM.

Turning to `COc1cc2c(cc1OCCOC(C#N)C1CC1)CCN1C[C@@H](CC(C)(C)C)[C@H](O)C[C@H]21` (stereo partly drawn) [Compound 4-43, 2-(2-{[(2R,3R,11bR)-3-(2,2-dimethylpropyl)-2-hydroxy-10-methoxy-1H,2H,3H,4H,6H,7H,11bH-pyrido[2,1-a]isoquinolin-9-yl]oxy}ethoxy)-2-cyclopropylacetonitrile], in series [1], the CLint scaled at 0.5 μM was 68.8 mL/min/kg, the half-life at 0.5 μM was 18 min, the “Predicted Max. Bioavailability (% F)” value is given as 23 % F and the “HLM Predicted Systemic Clearance” value was 15.5 mL/min/kg. Further, on human VMAT2 (setting [2]), the Ki came to 4.8 nM.

In the case of `COc1cc2c(cc1OCc1cccc(F)c1)CCN1C[C@@H](CC(C)(C)C)[C@H](O)C[C@H]21` [Compound 4-64, (2R,3R,11bR)-3-(2,2-dimethylpropyl)-9-[(3-fluorophenyl)methoxy]-10-methoxy-1H,2H,3H,4H,6H,7H,11bH-pyrido[2,1-a]isoquinolin-2-ol], in series [1], the CLint scaled at 0.5 μM is 38 mL/min/kg, the half-life at 0.5 μM worked out at 33 min, the “Predicted Max. Bioavailability (% F)” value is listed as 35 % F and the “HLM Predicted Systemic Clearance” value is 13.1 mL/min/kg. Also, the Ki on human VMAT2 (setting [2]) stood at 5.5 nM.

Consider `COc1cc2c(cc1OCc1cocn1)CCN1C[C@@H](CC(C)(C)C)[C@H](O)C[C@H]21` [Compound 4-75, (2R,3R,11bR)-3-(2,2-dimethylpropyl)-10-methoxy-9-(1,3-oxazol-4-ylmethoxy)-1H,2H,3H,4H,6H,7H,11bH-pyrido[2,1-a]isoquinolin-2-ol], for which, in series [1], the CLint scaled at 0.5 μM was 11.9 mL/min/kg, the half-life at 0.5 μM was 104 min, the “Predicted Max. Bioavailability (% F)” value is listed as 63 % F and the “HLM Predicted Systemic Clearance” value was 7.48 mL/min/kg. Moreover, the Ki on human VMAT2 (setting [2]) was 76 nM.

In the case of `COc1cc2c(cc1OC)[C@H]1C[C@@H](O)[C@H](CC(C)(C)C)CN1CC2` [Compound 5-1, (2R,3R,11bR)-3-(2,2-dimethylpropyl)-9,10-dimethoxy-1H,2H,3H,4H,6H,7H,11bH-pyrido[2,1-a]isoquinolin-2-ol], in series [1], the CLint scaled at 0.5 μM was 15.6 mL/min/kg, the half-life at 0.5 μM worked out at 80 min, the “Predicted Max. Bioavailability (% F)” value is 56 % F and the “HLM Predicted Systemic Clearance” value was 8.77 mL/min/kg. In addition, the Ki at human VMAT2 (setting [2]) came to 6.6 nM.

As to `CCOc1cc2c(cc1OC)[C@H]1C[C@@H](O)[C@H](CC(C)(C)C)CN1CC2` [Compound 4-17, (2R,3R,11bR)-3-(2,2-dimethylpropyl)-9-ethoxy-10-methoxy-1H,2H,3H,4H,6H,7H,11bH-pyrido[2,1-a]isoquinolin-2-ol], in series [1], the CLint scaled at 0.5 μM is 32.9 mL/min/kg, the half-life at 0.5 μM is 38 min, the “Predicted Max. Bioavailability (% F)” value was 38 % F and the “HLM Predicted Systemic Clearance” value is 12.44 mL/min/kg. Further, the Ki on human VMAT2 (setting [2]) came to 1.1 nM.

With `COc1cc2c(cc1OCC1CC(O)(C(F)(F)F)C1)CCN1C[C@@H](CC(C)(C)C)[C@H](O)C[C@H]21` (stereo partly drawn) [Compound 4-78, (2R,3R,11bR)-3-(2,2-dimethylpropyl)-9-{[3-hydroxy-3-(trifluoro-methyl)cyclobutyl]methoxy}-10-methoxy-1H,2H,3H,4H,6H,7H,11bH-pyrido[2,1-a]isoquinolin-2-ol], in series [1], the CLint scaled at 0.5 μM is 6.41 mL/min/kg, the half-life at 0.5 μM is 195 min, the “Predicted Max. Bioavailability (% F)” value is recorded as 76 % F and the “HLM Predicted Systemic Clearance” value was 4.86 mL/min/kg. At human VMAT2 (setting [2]), the Ki came out at 92 nM.

Turning to `COc1cc2c(cc1OCCCC(F)(F)F)CCN1C[C@@H](CC(C)(C)C)[C@H](O)C[C@H]21` [Compound 4-120, (2R,3R,11bR)-3-(2,2-dimethylpropyl)-10-methoxy-9-(4,4,4-trifluorobutoxy)-1H,2H,3H,4H,6H,7H,11bH-pyrido[2,1-a]isoquinolin-2-ol], in series [1], the CLint scaled at 0.5 μM is at most 2.97 mL/min/kg, the half-life at 0.5 μM is at least 420 min, the “Predicted Max. Bioavailability (% F)” value is reported as at least 87 % F and the “HLM Predicted Systemic Clearance” value was at most 2.59 mL/min/kg. For the same molecule, the Ki on human VMAT2 (setting [2]) came to 1.5 nM.

`COc1cc2c(cc1OCc1ccc(F)cc1)CCN1C[C@@H](CC(C)(C)C)[C@H](O)C[C@H]21` [Compound 4-63, (2R,3R,11bR)-3-(2,2-dimethylpropyl)-9-[(4-fluorophenyl)methoxy]-10-methoxy-1H,2H,3H,4H,6H,7H,11bH-pyrido[2,1-a]isoquinolin-2-ol]: in series [1], the CLint scaled at 0.5 μM was 42.3 mL/min/kg, the half-life at 0.5 μM stood at 29 min, the “Predicted Max. Bioavailability (% F)” value is given as 32 % F and the “HLM Predicted Systemic Clearance” value was 13.58 mL/min/kg. Besides, on human VMAT2 (setting [2]), the Ki is 4.2 nM.

With `COc1cc2c(cc1OCC1(F)CC1)CCN1C[C@@H](CC(C)(C)C)[C@@H](O)C[C@H]21` [Compound 4-118, (2S,3R,11bR)-3-(2,2-dimethylpropyl)-9-[(1-fluorocyclopropyl)methoxy]-10-methoxy-1H,2H,3H,4H,6H,7H,11bH-pyrido[2,1-a]isoquinolin-2-ol], in series [1], the CLint scaled at 0.5 μM is 6.6 mL/min/kg, the half-life at 0.5 μM stood at 189 min, the “Predicted Max. Bioavailability (% F)” value is on record as 75 % F and the “HLM Predicted Systemic Clearance” value is 4.96 mL/min/kg. For the same molecule, the Ki at human VMAT2 (setting [2]) worked out at 13 nM.

For the molecule `COc1cc2c(cc1OCC1(C(F)F)CC1)CCN1C[C@@H](CC(C)(C)C)[C@H](O)C[C@H]21` [Compound 4-57, (2R,3R,11bR)-9-{[1-(difluoromethyl)cyclo-propyl]methoxy}-3-(2,2-dimethylpropyl)-10-methoxy-1H,2H,3H,4H,6H,7H,11bH-pyrido[2,1-a]isoquinolin-2-ol], in series [1], the CLint scaled at 0.5 μM is at most 2.97 mL/min/kg, the half-life at 0.5 μM is at least 420 min, the “Predicted Max. Bioavailability (% F)” value was at least 87 % F and the “HLM Predicted Systemic Clearance” value was at most 2.59 mL/min/kg. Besides, the Ki on human VMAT2 (setting [2]) amounted to 0.93 nM.

For the molecule `[2H]C([2H])([2H])Oc1cc2c(cc1OC)[C@H]1C[C@@H](O)[C@H](CC(C)(C)C)CN1CC2` [Compound 4-52, (2R,3R,11bR)-3-(2,2-dimethylpropyl)-9-(methoxy-d3)-10-methoxy-1H,2H,3H,4H,6H,7H,11bH-pyrido[2,1-a]isoquinolin-2-ol], in series [1], the CLint scaled at 0.5 μM is at most 2.97 mL/min/kg, the half-life at 0.5 μM is at least 420 min, the “Predicted Max. Bioavailability (% F)” value is reported as at least 87 % F and the “HLM Predicted Systemic Clearance” value is at most 2.59 mL/min/kg. The molecule also showed a Ki at human VMAT2 of 2.5 nM.

On to `COc1cc2c(cc1OCCN1CCC(F)(F)C1)CCN1C[C@@H](CC(C)(C)C)[C@H](O)C[C@H]21` [Compound 4-71, (2R,3R,11bR)-9-[2-(3,3-difluoropyrrolidin-1-yl)ethoxy]-3-(2,2-dimethylpropyl)-10-methoxy-1H,2H,3H,4H,6H,7H,11bH-pyrido[2,1-a]isoquinolin-2-ol], for which, in series [1], the CLint scaled at 0.5 μM was 38.4 mL/min/kg, the half-life at 0.5 μM was 33 min, the “Predicted Max. Bioavailability (% F)” value was 34 % F and the “HLM Predicted Systemic Clearance” value is 13.15 mL/min/kg. For the same molecule, the Ki at human VMAT2 (setting [2]) came out at 37 nM.

For the molecule `COc1cc2c(cc1OC[C@H](C)O)CCN1C[C@@H](CC(C)(C)C)[C@H](O)C[C@H]21` [Compound 4-114, (2R,3R,11bR)-3-(2,2-dimethylpropyl)-9-[(2S)-2-hydroxypropoxy]-10-methoxy-1H,2H,3H,4H,6H,7H,11bH-pyrido[2,1-a]isoquinolin-2-ol], in series [1], the CLint scaled at 0.5 μM is at most 2.97 mL/min/kg, the half-life at 0.5 μM is at least 420 min, the “Predicted Max. Bioavailability (% F)” value is at least 87 % F and the “HLM Predicted Systemic Clearance” value is at most 2.59 mL/min/kg. Besides, the Ki at human VMAT2 (setting [2]) was 70 nM.
